The values below come from US9464084B2, “P2X7 modulators” (Janssen Pharmaceutica NV, priority 2013, dated 2016).

Experiment [1] addresses T1, P2X7 (Homo sapiens (Human), UniProt Q99572). The experiment is described as follows: P2X7 antagonism in human PBMCs (LPS + Bz-ATP induced IL-1β release, ELISA).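 As to all read-outs here: PBMCs from donor human blood, with a further 1.5 h incubation of the cells in the assay.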 The note with it: LPS 30 ng/ml, Bz-ATP 0.5 mM; for PBMC 1 μM (% control): compound 1 μM; for PBMC 10 μM (% control): compound 10 μM. It counts as cell-based. On the technique in general: In an ELISA, binding on a coated surface is turned into a signal by an enzyme label.

Experiment [2] has as its target T1, P2X7. The experiment is described as follows: Radioligand binding, tritiated A-804598, human P2X7-1321N1 cell membranes.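 Also: ki obtained from the binding IC50 after correction for tracer concentration and tracer affinity.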 To be noted: 1 hour at 4° C.
Experimental: On the day of the experiment, cell membrane preparations were made according to standard published methods. […] The assay was terminated by filtration (GF/B filters pre-soaked with 0.3% PEI) and washed with washing buffer (Tris-HCl 50 mM). The IC50 generated in the binding assay was corrected for tracer concentration and affinity of the tracer to derive at the affinity (Ki) of the test compounds.
The target in experiment [3] is T1, P2X7. The experiment is described as follows: Ca2+ flux (FLIPR) in 1321N1 cells expressing recombinant human P2X7 channel.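 Also: Calcium-4 dye-loaded cells exposed to compound for 30 min before agonist addition, fluorescence change read 180 s after agonist.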 It counts as cell-based. The note with it: 250 μM BzATP. A general note: Calcium assays in cells follow changes in intracellular calcium, usually with a dye or a luminescent sensor.
In a further experiment the target is rat P2X7 (Rattus norvegicus (Rat), UniProt Q64663). As to the kind of experiment: Ca2+ flux (FLIPR) in 1321N1 cells expressing recombinant rat P2X7 channel.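 Also: Calcium-4 dye fluorescence change read 180 s after agonist addition, following 30 min cell preincubation with test compound.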 It counts as cell-based. The note with it: 250 μM BzATP.
Chain of rat P2X7 (Q64663 whole entry): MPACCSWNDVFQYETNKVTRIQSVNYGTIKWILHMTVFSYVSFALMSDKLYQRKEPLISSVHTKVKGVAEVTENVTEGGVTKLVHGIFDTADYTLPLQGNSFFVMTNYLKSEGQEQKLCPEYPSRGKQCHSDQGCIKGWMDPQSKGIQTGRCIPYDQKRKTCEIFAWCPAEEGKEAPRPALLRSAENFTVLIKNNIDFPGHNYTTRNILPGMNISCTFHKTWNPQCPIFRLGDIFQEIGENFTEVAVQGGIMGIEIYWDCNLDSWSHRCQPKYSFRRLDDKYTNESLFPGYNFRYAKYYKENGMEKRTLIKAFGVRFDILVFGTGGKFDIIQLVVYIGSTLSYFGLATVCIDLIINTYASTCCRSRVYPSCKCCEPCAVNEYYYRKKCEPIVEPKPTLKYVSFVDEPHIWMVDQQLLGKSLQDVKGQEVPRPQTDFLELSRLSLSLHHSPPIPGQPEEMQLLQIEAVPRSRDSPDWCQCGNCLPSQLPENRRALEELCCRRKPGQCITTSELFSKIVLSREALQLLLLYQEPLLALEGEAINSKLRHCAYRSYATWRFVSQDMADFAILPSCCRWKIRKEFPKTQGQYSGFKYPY

The Ki is a measure of affinity in units of concentration, obtained from inhibition or displacement. A higher Ki goes with a looser hold on the target. One may read the IC50 as the concentration that inhibits the measured activity by half.

T1 sequence (Q99572 whole entry): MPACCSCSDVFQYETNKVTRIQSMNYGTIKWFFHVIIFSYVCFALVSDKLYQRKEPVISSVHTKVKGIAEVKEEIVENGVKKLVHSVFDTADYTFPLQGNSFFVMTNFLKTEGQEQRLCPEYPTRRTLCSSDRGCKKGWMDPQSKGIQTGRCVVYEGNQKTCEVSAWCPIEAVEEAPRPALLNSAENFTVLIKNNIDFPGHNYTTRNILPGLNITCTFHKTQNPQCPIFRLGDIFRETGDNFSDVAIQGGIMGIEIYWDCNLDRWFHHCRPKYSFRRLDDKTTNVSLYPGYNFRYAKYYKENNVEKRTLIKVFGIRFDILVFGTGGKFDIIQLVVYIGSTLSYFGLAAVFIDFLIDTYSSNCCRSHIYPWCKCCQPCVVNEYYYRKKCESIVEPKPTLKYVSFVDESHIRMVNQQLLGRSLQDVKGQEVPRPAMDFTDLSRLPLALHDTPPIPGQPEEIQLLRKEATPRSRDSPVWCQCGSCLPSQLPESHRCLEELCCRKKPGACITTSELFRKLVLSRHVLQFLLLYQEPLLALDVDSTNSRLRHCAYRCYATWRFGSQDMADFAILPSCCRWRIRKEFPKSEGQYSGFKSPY

`CN(C)C(=O)C1c2ncn(-c3ccccn3)c2CCN1C(=O)c1cccc(C(F)(F)F)c1Cl` (stereo not shown) [Example 34, 5-{[2-Chloro-3-(trifluoromethyl)phenyl]carbonyl}-N,N-dimethyl-1-pyridin-2-yl-4,5,6,7-tetrahydro-1H-imidazo[4,5-c]pyridine-4-carboxamide]: the “PBMC 1 μM (% control)” value at P2X7 [1] was 29.8 % control. The same molecule returned a Ki on P2X7 [2] of 631 nM. Also, the IC50 on P2X7 [3] and on rat P2X7 was 158 nM throughout.

Regarding `CCOC(=O)C1c2ncn(-c3ccccn3)c2CCN1C(=O)c1cccc(C(F)(F)F)c1Cl` (stereo not shown) [Example 24, Ethyl 5-(2-chloro-3-(trifluoromethyl)benzoyl)-1-(pyridin-2-yl)-4,5,6,7-tetrahydro-1H-imidazo[4,5-c]pyridine-4-carboxylate], on P2X7 [1], the “PBMC 1 μM (% control)” value was 2.9 % control. Further, the inhibition constant Ki on P2X7 [2] amounted to 91.2 nM. Moreover, the IC50 stood at 35 nM at P2X7 [3] and 34.2 nM on rat P2X7.

On to `O=C(c1cccc(C(F)(F)F)c1F)N1CCc2c(ncn2-c2ccn[nH]2)C1` [Example 59, 5-{[2-Fluoro-3-(trifluoromethyl)phenyl]carbonyl}-1-(1H-pyrazol-5-yl)-4,5,6,7-tetrahydro-1H-imidazo[4,5-c]pyridine], for which the “PBMC 10 μM (% control)” value at P2X7 [1] was found to be 10.2 % control. On P2X7 [2], this molecule had a Ki of 501 nM. Also, the IC50 is 378 nM on P2X7 [3] and 527 nM on rat P2X7.

Consider `COc1cccnc1-n1nnc2c1CCN(C(=O)c1cccc(C(F)(F)F)c1Cl)C2C` (stereo not shown) [Example 260, (2-Chloro-3-(trifluoromethyl)phenyl)(1-(3-methoxypyridin-2-yl)-4-methyl-6,7-dihydro-1H-[1,2,3]triazolo[4,5-c]pyridin-5(4H)-yl)methanone], for which the “PBMC 10 μM (% control)” value at P2X7 [1] was determined as 1.4 % control. Affinity at P2X7 [2] was put at a Ki of 35.5 nM. The IC50 stood at 27 nM on P2X7 [3] and 6930 nM on rat P2X7.

As to `Cc1ccnc(-n2nnc3c2CCN(C(=O)c2cccc(Cl)c2Cl)C3C)n1` (stereo not shown) [Example 225, (2,3-dichlorophenyl)(4-methyl-1-(4-methylpyrimidin-2-yl)-6,7-dihydro-1H-[1,2,3]triazolo[4,5-c]pyridin-5(4H)-yl)methanone], on P2X7 [1], the “PBMC 10 μM (% control)” value is listed as −1.0 % control. For the same molecule, the Ki at P2X7 [2] worked out at 9.1 nM. The IC50 at P2X7 [3] stood at 6.2 nM; at rat P2X7, 42.3 nM.

Regarding `C[C@H]1c2nnn(-c3cncnc3)c2CCN1C(=O)c1cccc(C(F)(F)F)c1Cl` [Example 333, (S)-(2-chloro-3-(trifluoromethyl)phenyl)(4-methyl-1-(pyrimidin-5-yl)-6,7-dihydro-1H-[1,2,3]triazolo[4,5-c]pyridin-5(4H)-yl)methanone], at P2X7 [1], the “PBMC 10 μM (% control)” value stood at 6.9 % control. At P2X7 [2], the Ki amounted to 63.1 nM. For the same molecule, the concentration for half-maximal inhibition (IC50) at P2X7 [3] was 101 nM; at rat P2X7, more than 10000 nM.

Take `CCC1c2ncn(-c3cnccn3)c2C=CN1C(=O)c1cccc(C(F)(F)F)c1Cl` (stereo not shown) [Example 55, 5-{[2-Chloro-3-(trifluoromethyl)phenyl]carbonyl}-4-ethyl-1-pyrazin-2-yl-4,5-dihydro-1H-imidazo[4,5-c]pyridine]: the “PBMC 1 μM (% control)” value at P2X7 [1] is recorded as 11.3 % control. The same molecule registered a Ki on P2X7 [2] of 126 nM. Moreover, the IC50 at P2X7 [3] was 16.7 nM; on rat P2X7 it was 259 nM.

In the case of `CCOC(=O)C1c2ncn(-c3ccccn3)c2CCN1C(=O)c1cccc(Cl)c1Cl` (stereo not shown) [Example 25, Ethyl 5-(2,3-dichlorobenzoyl)-1-(pyridin-2-yl)-4,5,6,7-tetrahydro-1H-imidazo[4,5-c]pyridine-4-carboxylate], at P2X7 [1], the “PBMC 1 μM (% control)” value is 9.7 % control. At P2X7 [2], this molecule gave a Ki of 74.1 nM. Moreover, the IC50 is 111 nM at P2X7 [3] and 3270 nM at rat P2X7.

As to `CC1Cc2c(nnn2-c2cc[nH]n2)CN1C(=O)c1cccc(C(F)(F)F)c1F` (stereo not shown) [Example 189, (2-fluoro-3-(trifluoromethyl)phenyl)(6-methyl-1-(1H-pyrazol-3-yl)-6,7-dihydro-1H-[1,2,3]triazolo[4,5-c]pyridin-5(4H)-yl)methanone], on P2X7 [1], the “PBMC 10 μM (% control)” value is given as 0.5 % control. This molecule also gave a Ki at P2X7 [2] of 13.5 nM. For the same molecule, the values for the IC50 on P2X7 [3] and at rat P2X7 were 3.9 nM and 6.3 nM, respectively.

In the case of `O=C(c1cccc(Cl)c1Cl)N1CCc2c(nc(C(F)(F)F)n2-c2ccccc2)C1` [Example 58, 5-[(2,3-Dichlorophenyl)carbonyl]-1-phenyl-2-(trifluoromethyl)-4,5,6,7-tetrahydro-1H-imidazo[4,5-c]pyridine], at P2X7 [1], the “PBMC 10 μM (% control)” value is listed as −2.0 % control. On P2X7 [2], this molecule came in with a Ki of 126 nM. Moreover, the IC50 is 10.7 nM at P2X7 [3] and 766 nM on rat P2X7.

`O=C(c1cccc(C(F)(F)F)c1Cl)N1CCc2c(ncn2-c2ccn[nH]2)C1` [Example 5, (1-(1H-Pyrazol-5-yl)-6,7-dihydro-1H-imidazo[4,5-c]pyridin-5(4H)-yl)(2-chloro-3-(trifluoromethyl)phenyl)methanone]: the “PBMC 10 μM (% control)” value at P2X7 [1] is reported as 11.6 % control. The same molecule displayed an inhibitory constant (Ki) on P2X7 [2] of 31.6 nM. Also, the IC50 at P2X7 [3] worked out at 12.4 nM; on rat P2X7 it was 324 nM.

Consider `Cc1c(C(=O)N2CCc3c(nnn3-c3cnccn3)C2)cccc1C(F)(F)F` [Example 276, (2-methyl-3-(trifluoromethyl)phenyl)(1-(pyrazin-2-yl)-6,7-dihydro-1H-[1,2,3]triazolo[4,5-c]pyridin-5(4H)-yl)methanone], for which the “PBMC 10 μM (% control)” value on P2X7 [1] is on record as −0.9 % control. On P2X7 [2], this molecule gave a Ki of 5.8 nM. For the same molecule, the values for the IC50 on P2X7 [3] and on rat P2X7 were 6.4 nM and 869 nM, respectively.

Take `CCc1nc2c(n1-c1ccccc1)CCN(C(=O)c1cccc(Cl)c1Cl)C2` [Example 332, (2,3-dichlorophenyl)(2-ethyl-1-phenyl-6,7-dihydro-1H-imidazo[4,5-c]pyridin-5(4H)-yl)methanone]: at P2X7 [1], the “PBMC 10 μM (% control)” value was −9.5 % control. At P2X7 [2], the Ki was determined as 631 nM. Further, the IC50 at P2X7 [3] was determined as 217 nM; at rat P2X7, 3720 nM.

With `CC1c2nnn(-c3ncccn3)c2CCN1C(=O)c1ccc(Cl)cc1Cl` (stereo not shown) [Example 283, (2,4-dichlorophenyl)(4-methyl-1-(pyrimidin-2-yl)-6,7-dihydro-1H-[1,2,3]triazolo[4,5-c]pyridin-5(4H)-yl)methanone], on P2X7 [1], the “PBMC 10 μM (% control)” value is listed as −6.3 % control. This molecule yielded a Ki at P2X7 [2] of 6.3 nM. Besides, the values for the IC50 on P2X7 [3] and on rat P2X7 were 4.7 nM and 192 nM, respectively.

For `O=C(C1c2ncn(-c3ccccn3)c2CCN1C(=O)c1cccc(C(F)(F)F)c1Cl)N1CCC1` (stereo not shown) [Example 35, 4-(Azetidin-1-ylcarbonyl)-5-{[2-chloro-3-(trifluoromethyl)phenyl]carbonyl}-1-pyridin-2-yl-4,5,6,7-tetrahydro-1H-imidazo[4,5-c]pyridine], the “PBMC 1 μM (% control)” value on P2X7 [1] was 31.6 % control. Also, the Ki at P2X7 [2] amounted to 316 nM. In addition, the IC50 on P2X7 [3] and at rat P2X7 was 316 nM in each case.

Regarding `O=C(c1ccnc(Cl)c1Cl)N1CCc2c(-c3ccccc3)n[nH]c2C1` [Example 104, 6-[(2,3-Dichloropyridin-4-yl)carbonyl]-3-phenyl-4,5,6,7-tetrahydro-1H-pyrazolo[3,4-c]pyridine], the “PBMC 1 μM (% control)” value at P2X7 [1] is 8.9 % control. For the same molecule, affinity on P2X7 [2] was put at a Ki of 50.1 nM. The IC50 is 205 nM at P2X7 [3] and 1610 nM at rat P2X7.

Regarding `Cc1ccnc(-n2nnc3c2CCN(C(=O)c2cccc(C(F)(F)F)c2Cl)C3C)n1` (stereo not shown) [Example 252, (2-Chloro-3-(trifluoromethyl)phenyl)(4-methyl-1-(4-methylpyrimidin-2-yl)-6,7-dihydro-1H-[1,2,3]triazolo[4,5-c]pyridin-5(4H)-yl)methanone], the “PBMC 10 μM (% control)” value on P2X7 [1] is −0.8 % control. Moreover, the Ki at P2X7 [2] amounted to 28.2 nM. In addition, the results for the IC50 at P2X7 [3] and on rat P2X7 were 18.8 nM and 22.3 nM, respectively.

With `O=C(c1cccc(C(F)(F)F)c1Cl)N1C=Cc2c(nnn2-c2ccccn2)C1` [Example 90, 5-{[2-Chloro-3-(trifluoromethyl)phenyl]carbonyl}-1-pyridin-2-yl-4,5-dihydro-1H-[1,2,3]triazolo[4,5-c]pyridine], the “PBMC 1 μM (% control)” value on P2X7 [1] came out at 13.3 % control. The Ki on P2X7 [2] amounted to 29.5 nM. Besides, the IC50 at P2X7 [3] came to 10.3 nM; at rat P2X7 it was 973 nM.

As for `CC1CN(C(=O)c2cccc(C(F)(F)F)c2Cl)Cc2nnn(-c3ccccc3)c21` (stereo not shown) [Example 245, (2-Chloro-3-(trifluoromethyl)phenyl)(7-methyl-1-phenyl-6,7-dihydro-1H-[1,2,3]triazolo[4,5-c]pyridin-5(4H)-yl)methanone], the “PBMC 10 μM (% control)” value at P2X7 [1] is on record as −7.3 % control. Also, on P2X7 [2], the inhibition constant Ki came to 100 nM. Besides, the IC50 on P2X7 [3] amounted to 161 nM; at rat P2X7 it was 2070 nM.

For the molecule `O=C(c1cccc(C(F)(F)F)c1Cl)N1CCc2c(nnn2-c2ccccc2)C1` [Example 61, 5-{[2-Chloro-3-(trifluoromethyl)phenyl]carbonyl}-1-phenyl-4,5,6,7-tetrahydro-1H-[1,2,3]triazolo[4,5-c]pyridine], at P2X7 [1], the “PBMC 1 μM (% control)” value is −0.1 % control. This molecule also had a Ki on P2X7 [2] of 38.9 nM. Further, the results for the IC50 at P2X7 [3] and on rat P2X7 were 4.7 nM and 1400 nM, respectively.

On to `CC1c2nnn(-c3ncccn3)c2CCN1C(=O)c1ccc(Cl)cc1F` (stereo not shown) [Example 275, (4-chloro-2-fluorophenyl)(4-methyl-1-(pyrimidin-2-yl)-6,7-dihydro-1H-[1,2,3]triazolo[4,5-c]pyridin-5(4H)-yl)methanone], for which, at P2X7 [1], the “PBMC 10 μM (% control)” value is −8.3 % control. Moreover, on P2X7 [2], the Ki was found to be 24.5 nM. For the same molecule, the figures for the IC50 at P2X7 [3] and at rat P2X7 were 46.9 nM and 673 nM, respectively.

With `C[C@H]1Cc2c(nnn2-c2ncccn2)CN1C(=O)c1cccc(C(F)(F)F)c1Cl` (single isomer, unassigned) [Example 222, (6S*)-5-{[2-Chloro-3-(trifluoromethyl)phenyl]carbonyl}-6-methyl-1-pyrimidin-2-yl-4,5,6,7-tetrahydro-1H-[1,2,3]triazolo[4,5-c]pyridine], at P2X7 [1], the “PBMC 10 μM (% control)” value came out at 11.8 % control. The same molecule had a Ki on P2X7 [2] of 25.1 nM. The figures for the half-inhibitory concentration (IC50) on P2X7 [3] and on rat P2X7 were 1.1 nM and 1 nM, respectively.
